Test system: MV-4-11 cells
Assay: Gene expression microarray analysis (Affymetrix PrimeView) and GSEA
Assay type: cell-based, human
Design: RFU PODN (11730768_x_at) / Fold change /veh PODN (11730768_x_at) / RFU LINC00158 (11744669_a_at) / Fold change /veh LINC00158 (11744669_a_at) / RFU DUSP10 (11751237_a_at) / Fold change /veh DUSP10 (11751237_a_at) / RFU ID3 (11757404_x_at) / Fold change /veh ID3 (11757404_x_at) / RFU PLEKHG5 (11737974_s_at) / Fold change /veh PLEKHG5 (11737974_s_at) / RFU LRRC4B (11730491_at) / Fold change /veh LRRC4B (11730491_at) / RFU GIMAP4 (11747438_a_at) / Fold change /veh GIMAP4 (11747438_a_at) / RFU KRT8 (11758183_x_at) / Fold change /veh KRT8 (11758183_x_at) / RFU CNN1 (11734310_a_at) / Fold change /veh CNN1 (11734310_a_at) / RFU VPS37D (11726825_at) / Fold change /veh VPS37D (11726825_at) / RFU C10orf10 (11716522_x_at) / Fold change /veh C10orf10 (11716522_x_at) / RFU KIR2DL2 /// KIR2DL4 /// KIR2DL5A /// KIR2DL5B /// KIR2DS1 /// KIR2DS2 /// KIR2DS3 /// KIR2DS4 /// KIR3DL3 /// KIR3DL3 /// KIR3DS1 (11738374_at) / Fold change /veh KIR2DL2 /// KIR2DL4 /// KIR2DL5A /// KIR2DL5B /// KIR2DS1 /// KIR2DS2 /// KIR2DS3 /// KIR2DS4 /// KIR3DL3 /// KIR3DL3 /// KIR3DS1 (11738374_at) / RFU C1QL1 (11718748_at) / Fold change /veh C1QL1 (11718748_at) / RFU TMPRSS4 (11747572_a_at) / Fold change /veh TMPRSS4 (11747572_a_at) / RFU HAMP (11756126_x_at) / Fold change /veh HAMP (11756126_x_at) / RFU RNFT2 (11725882_a_at) / Fold change /veh RNFT2 (11725882_a_at) / RFU NR4A2 (11747474_a_at) / Fold change /veh NR4A2 (11747474_a_at) / RFU ABCC12 (11746883_a_at) / Fold change /veh ABCC12 (11746883_a_at) / RFU TMEM136 (11760407_x_at) / Fold change /veh TMEM136 (11760407_x_at) / RFU CLDN22 /// WWC2 (11732394_at) / Fold change /veh CLDN22 /// WWC2 (11732394_at) / RFU HLA-DPB1 (11760878_x_at) / Fold change /veh HLA-DPB1 (11760878_x_at) / RFU SPINT1 (11716480_a_at) / Fold change /veh SPINT1 (11716480_a_at) / RFU GAP43 (11754022_s_at) / Fold change /veh GAP43 (11754022_s_at) / RFU A4GNT (11735810_at) / Fold change /veh A4GNT (11735810_at) / RFU PRB3 (11715151_x_at) / Fold change /veh PRB3 (11715151_x_at) / RFU TUBB4B (11761932_at) / Fold change /veh TUBB4B (11761932_at) / RFU CAPN14 (11732068_a_at) / Fold change /veh CAPN14 (11732068_a_at) / RFU TMCC2 (11721928_a_at) / Fold change /veh TMCC2 (11721928_a_at) / RFU IRGQ (11745062_a_at) / Fold change /veh IRGQ (11745062_a_at) / RFU FAM174B (11720279_a_at) / Fold change /veh FAM174B (11720279_a_at) / RFU TMPRSS4 (11748680_a_at) / Fold change /veh TMPRSS4 (11748680_a_at) / RFU FAM212B (11763350_a_at) / Fold change /veh FAM212B (11763350_a_at) / RFU PLEKHG5 (11743358_a_at) / Fold change /veh PLEKHG5 (11743358_a_at) / RFU ZSCAN30 (11745921_a_at) / Fold change /veh ZSCAN30 (11745921_a_at) / RFU CMKLR1 (11741424_a_at) / Fold change /veh CMKLR1 (11741424_a_at) / RFU LOC101060620 /// MAPK8IP1 (11723275_at) / Fold change /veh LOC101060620 /// MAPK8IP1 (11723275_at) / RFU SPTSSB (11747773_x_at) / Fold change /veh SPTSSB (11747773_x_at) / RFU PRSS12 (11739890_at) / Fold change /veh PRSS12 (11739890_at) / RFU BIN1 (11741810_x_at) / Fold change /veh BIN1 (11741810_x_at) / RFU WNT11 (11732464_a_at) / Fold change /veh WNT11 (11732464_a_at) / RFU C10orf10 (11716521_a_at) / Fold change /veh C10orf10 (11716521_a_at) / RFU C5orf56 (11738089_at) / Fold change /veh C5orf56 (11738089_at) / RFU CYB561 (11721691_x_at) / Fold change /veh CYB561 (11721691_x_at) / RFU ANKRD19P (11752326_a_at) / Fold change /veh ANKRD19P (11752326_a_at) / RFU OR2T12 /// OR2T33 /// OR2T8 (11738714_s_at) / Fold change /veh OR2T12 /// OR2T33 /// OR2T8 (11738714_s_at) / RFU VCAN (11748164_a_at) / Fold change /veh VCAN (11748164_a_at) / RFU JSRP1 (11732532_at) / Fold change /veh JSRP1 (11732532_at) / RFU KRTAP10-11 (11738290_x_at) / Fold change /veh KRTAP10-11 (11738290_x_at) / RFU MYO3A (11730013_a_at) / Fold change /veh MYO3A (11730013_a_at) / RFU EBF3 (11725865_a_at) / Fold change /veh EBF3 (11725865_a_at) / RFU CAMK2N1 (11719241_x_at) / Fold change /veh CAMK2N1 (11719241_x_at) / RFU C5orf56 (11738088_a_at) / Fold change /veh C5orf56 (11738088_a_at) / RFU OLFML3 (11715873_a_at) / Fold change /veh OLFML3 (11715873_a_at) / RFU LOC100653217 /// NTM (11731650_a_at) / Fold change /veh LOC100653217 /// NTM (11731650_a_at) / RFU MAPK11 (11762145_a_at) / Fold change /veh MAPK11 (11762145_a_at) / RFU FIZ1 (11724087_x_at) / Fold change /veh FIZ1 (11724087_x_at) / RFU OASL (11726364_x_at) / Fold change /veh OASL (11726364_x_at) / RFU SOX15 (11748057_x_at) / Fold change /veh SOX15 (11748057_x_at) / RFU CD79A (11719716_a_at) / Fold change /veh CD79A (11719716_a_at) / RFU HIST1H1D (11736915_at) / Fold change /veh HIST1H1D (11736915_at) / RFU CASKIN2 (11723855_a_at) / Fold change /veh CASKIN2 (11723855_a_at) / RFU LOC730098 (11760151_x_at) / Fold change /veh LOC730098 (11760151_x_at) / RFU OR4N2 (11742367_at) / Fold change /veh OR4N2 (11742367_at) / RFU PRRT2 (11749266_a_at) / Fold change /veh PRRT2 (11749266_a_at) / RFU SNX32 (11753110_a_at) / Fold change /veh SNX32 (11753110_a_at) / RFU CDHR5 (11726645_a_at) / Fold change /veh CDHR5 (11726645_a_at) / RFU RCAN1 (11760418_a_at) / Fold change /veh RCAN1 (11760418_a_at) / RFU FAM167A (11723789_a_at) / Fold change /veh FAM167A (11723789_a_at) / RFU FAM26E (11764081_at) / Fold change /veh FAM26E (11764081_at) / RFU ISYNA1 (11749810_s_at) / Fold change /veh ISYNA1 (11749810_s_at) / RFU ACY1 (11761880_at) / Fold change /veh ACY1 (11761880_at) / RFU 11764098_at / Fold change /veh 11764098_at / RFU SAMD14 (11745864_x_at) / Fold change /veh SAMD14 (11745864_x_at) / RFU NPB (11741838_a_at) / Fold change /veh NPB (11741838_a_at) / RFU TMPRSS6 (11731388_a_at) / Fold change /veh TMPRSS6 (11731388_a_at) / RFU KRTAP10-2 (11738614_at) / Fold change /veh KRTAP10-2 (11738614_at) / RFU ARHGAP8 /// PRR5-ARHGAP8 (11727945_x_at) / Fold change /veh ARHGAP8 /// PRR5-ARHGAP8 (11727945_x_at) / RFU KRTAP5-7 /// NADSYN1 (11734609_at) / Fold change /veh KRTAP5-7 /// NADSYN1 (11734609_at) / RFU RASL12 (11751679_a_at) / Fold change /veh RASL12 (11751679_a_at) / RFU CDKN2B (11736163_a_at) / Fold change /veh CDKN2B (11736163_a_at) / RFU PRF1 (11729649_at) / Fold change /veh PRF1 (11729649_at) / RFU, ZNF638 /// ZNF638-IT1 / Fold change vs veh, ZNF638 /// ZNF638-IT1 / RFU, PANK3 / Fold change vs veh, PANK3 / RFU, SH3YL1 / Fold change vs veh, SH3YL1 / RFU, ZEB2 / Fold change vs veh, ZEB2 / RFU, NRIP1 / Fold change vs veh, NRIP1 / RFU, PTTG1IP / Fold change vs veh, PTTG1IP / RFU, CAPN2 / Fold change vs veh, CAPN2 / RFU, MED14 / Fold change vs veh, MED14 / RFU, SNORA58 / Fold change vs veh, SNORA58 / RFU, C1orf63 / Fold change vs veh, C1orf63 / RFU, LRRFIP1 / Fold change vs veh, LRRFIP1 / RFU, NDUFAF7 / Fold change vs veh, NDUFAF7 / RFU, SLC12A2 / Fold change vs veh, SLC12A2 / RFU, IBTK / Fold change vs veh, IBTK / RFU, ESF1 / Fold change vs veh, ESF1 / Fold change vs veh, TMEM50B / RFU, TAOK1 / Fold change vs veh, TAOK1 / RFU, ACBD3 / Fold change vs veh, ACBD3 / RFU, TMA16 / Fold change vs veh, TMA16 / RFU, RWDD3 / Fold change vs veh, RWDD3 / RFU, BCAT1 / Fold change vs veh, BCAT1 / RFU, EDEM3 / Fold change vs veh, EDEM3 / RFU, TMEM33 / Fold change vs veh, TMEM33 / RFU, WDR75 / Fold change vs veh, WDR75 / RFU, AHCTF1 / Fold change vs veh, AHCTF1 / RFU, TFRC / Fold change vs veh, TFRC / RFU, ZDHHC17 / Fold change vs veh, ZDHHC17 / RFU, NOM1 / Fold change vs veh, NOM1 / RFU, ARL8B / Fold change vs veh, ARL8B / RFU, ZBTB11 / Fold change vs veh, ZBTB11 / RFU, TAMM41 / Fold change vs veh, TAMM41 / RFU, KIAA1704 /// LOC100996395 / Fold change vs veh, KIAA1704 /// LOC100996395 / RFU, ING1 / Fold change vs veh, ING1 / RFU, TRMT61B / Fold change vs veh, TRMT61B / RFU, FUBP3 / Fold change vs veh, FUBP3 / RFU, TP53 / Fold change vs veh, TP53 / RFU, TNKS2 / Fold change vs veh, TNKS2 / RFU, ZFP14 / Fold change vs veh, ZFP14 / RFU, ACTR2 / Fold change vs veh, ACTR2 / RFU, PPP3R1 / Fold change vs veh, PPP3R1 / RFU, PIK3R1 / Fold change vs veh, PIK3R1 / RFU, HNRNPA1 / Fold change vs veh, HNRNPA1 / RFU, RNF170 / Fold change vs veh, RNF170 / RFU, ZNF28 / Fold change vs veh, ZNF28 / RFU, RNGTT / Fold change vs veh, RNGTT / RFU, OGT / Fold change vs veh, OGT / RFU, BRD1 / Fold change vs veh, BRD1 / RFU, MARS / Fold change vs veh, MARS / RFU, ZNF655 / Fold change vs veh, ZNF655 / RFU, FAHD1 / Fold change vs veh, FAHD1 / RFU, BDP1 / Fold change vs veh, BDP1 / RFU, LRRCC1 / Fold change vs veh, LRRCC1 / RFU, ARID1A / Fold change vs veh, ARID1A / RFU, ZNF146 / Fold change vs veh, ZNF146 / RFU, ZNF330 / Fold change vs veh, ZNF330 / RFU, GPN3 / Fold change vs veh, GPN3 / RFU, C9orf123 / Fold change vs veh, C9orf123 / RFU, N4BP2L2 / Fold change vs veh, N4BP2L2 / RFU, ARFIP1 / Fold change vs veh, ARFIP1 / RFU, FAM179B / Fold change vs veh, FAM179B / RFU, BCL10 / Fold change vs veh, BCL10 / RFU, UHRF1BP1L / Fold change vs veh, UHRF1BP1L / RFU, BET1 / Fold change vs veh, BET1 / RFU, CNOT2 / Fold change vs veh, CNOT2 / RFU, ZNF268 / Fold change vs veh, ZNF268 / Fold change vs veh, ZNF507 / RFU, DGCR2 / Fold change vs veh, DGCR2 / RFU, WDSUB1 / Fold change vs veh, WDSUB1 / Fold change vs veh, HSP90B1 /// MIR3652 / RFU, ADSS / Fold change vs veh, ADSS / RFU, GK / Fold change vs veh, GK / RFU, ZNF148 / Fold change vs veh, ZNF148 / RFU, TAF9 / Fold change vs veh, TAF9 / RFU, SLC1A5 / Fold change vs veh, SLC1A5 / RFU, SLMO2 / Fold change vs veh, SLMO2 / RFU, ABCC4 / Fold change vs veh, ABCC4 / RFU, LOC101060439 /// RAP1B / Fold change vs veh, LOC101060439 /// RAP1B / RFU, RFX7 / Fold change vs veh, RFX7 / RFU, GTPBP10 / Fold change vs veh, GTPBP10 / RFU, CNEP1R1 / Fold change vs veh, CNEP1R1 / RFU, BIVM-ERCC5 /// ERCC5 / Fold change vs veh, BIVM-ERCC5 /// ERCC5 / RFU, ILF3 / Fold change vs veh, ILF3 / RFU 11762660_at / Fold change /veh 11762660_at / RFU VCAN (11757783_s_at) / Fold change /veh VCAN (11757783_s_at) / RFU DDX43 (11728927_at) / Fold change /veh DDX43 (11728927_at) / RFU KRT8 (11758188_x_at) / Fold change /veh KRT8 (11758188_x_at) / RFU NKD1 (11759106_at) / Fold change /veh NKD1 (11759106_at) / RFU SRD5A1 (11742802_a_at) / Fold change /veh SRD5A1 (11742802_a_at) / RFU TPSAB1 /// TPSB2 (11721975_s_at) / Fold change /veh TPSAB1 /// TPSB2 (11721975_s_at) / RFU GSTM3 (11746129_a_at) / Fold change /veh GSTM3 (11746129_a_at) / RFU IL23R (11737362_x_at) / Fold change /veh IL23R (11737362_x_at) / RFU TMEM51 (11727254_a_at) / Fold change /veh TMEM51 (11727254_a_at) / RFU PIWIL2 (11732686_x_at) / Fold change /veh PIWIL2 (11732686_x_at) / RFU ORM1 (11744905_x_at) / Fold change /veh ORM1 (11744905_x_at) / RFU CCDC152 (11743942_at) / Fold change /veh CCDC152 (11743942_at) / RFU ECM1 (11717891_a_at) / Fold change /veh ECM1 (11717891_a_at) / RFU IL23R (11748794_a_at) / Fold change /veh IL23R (11748794_a_at) / RFU TNFAIP8L3 (11732012_x_at) / Fold change /veh TNFAIP8L3 (11732012_x_at) / RFU MBOAT4 (11741988_at) / Fold change /veh MBOAT4 (11741988_at) / RFU 11764193_at / Fold change /veh 11764193_at / RFU TMEM53 (11763286_at) / Fold change /veh TMEM53 (11763286_at) / RFU MAGEB2 (11727129_at) / Fold change /veh MAGEB2 (11727129_at) / RFU TMEM200A (11744735_a_at) / Fold change /veh TMEM200A (11744735_a_at) / RFU CCDC152 (11751479_a_at) / Fold change /veh CCDC152 (11751479_a_at) / RFU FAM211A (11726209_a_at) / Fold change /veh FAM211A (11726209_a_at) / RFU RGS16 (11746705_a_at) / Fold change /veh RGS16 (11746705_a_at) / RFU VCAN (11755009_s_at) / Fold change /veh VCAN (11755009_s_at) / RFU RHOB (11743442_s_at) / Fold change /veh RHOB (11743442_s_at) / RFU RGS16 (11720943_a_at) / Fold change /veh RGS16 (11720943_a_at) / RFU RGS16 (11720944_at) / Fold change /veh RGS16 (11720944_at) / RFU, VPS4B / Fold change vs veh, VPS4B / RFU, CREB1 / Fold change vs veh, CREB1 / RFU, DNAJC13 / Fold change vs veh, DNAJC13 / RFU, GNAQ / Fold change vs veh, GNAQ / RFU, CDK5R1 / Fold change vs veh, CDK5R1 / RFU, ZRANB3 / Fold change vs veh, ZRANB3 / RFU, CUL4A / Fold change vs veh, CUL4A / RFU, CCNY / Fold change vs veh, CCNY / RFU, UFL1 / Fold change vs veh, UFL1 / RFU, COG3 / Fold change vs veh, COG3 / RFU, DIAPH2 / Fold change vs veh, DIAPH2 / RFU, SKA2 / Fold change vs veh, SKA2 / RFU, AFF3 / Fold change vs veh, AFF3 / RFU, LMF1 / Fold change vs veh, LMF1 / RFU, IPO11 / Fold change vs veh, IPO11 / RFU, DFFB / Fold change vs veh, DFFB / RFU, FOXP1 / Fold change vs veh, FOXP1 / RFU, CARD8 / Fold change vs veh, CARD8 / RFU, STRN3 / Fold change vs veh, STRN3 / RFU, ADK / Fold change vs veh, ADK / RFU, RASSF2 / Fold change vs veh, RASSF2 / RFU, WIPF1 / Fold change vs veh, WIPF1 / RFU, LARP1B / Fold change vs veh, LARP1B / RFU, RASA1 / Fold change vs veh, RASA1 / RFU, RB1 / Fold change vs veh, RB1 / RFU, PPFIA1 / Fold change vs veh, PPFIA1 / RFU, MAT2A / Fold change vs veh, MAT2A / RFU, CCT5 / Fold change vs veh, CCT5 / RFU, WDR92 / Fold change vs veh, WDR92 / RFU, CUX1 / Fold change vs veh, CUX1 / RFU, TTC7A / Fold change vs veh, TTC7A / RFU, TMEM135 / Fold change vs veh, TMEM135 / RFU, DEPTOR / Fold change vs veh, DEPTOR / RFU, CPM / Fold change vs veh, CPM / RFU, DNAJB6 / Fold change vs veh, DNAJB6 / RFU, CACNA2D3 / Fold change vs veh, CACNA2D3 / RFU, DTX4 / Fold change vs veh, DTX4 / RFU, TFCP2 / Fold change vs veh, TFCP2 / RFU, GMCL1 /// GMCL1P1 / Fold change vs veh, GMCL1 /// GMCL1P1 / RFU, AEBP2 / Fold change vs veh, AEBP2 / RFU, SNHG1 /// SNORD22 /// SNORD25 /// SNORD26 /// SNORD27 /// SNORD28 /// SNORD29 /// SNORD31 / Fold change vs veh, SNHG1 /// SNORD22 /// SNORD25 /// SNORD26 /// SNORD27 /// SNORD28 /// SNORD29 /// SNORD31 / Fold change (Aza/veh), C12orf56 (ProbeSet 11735607_a_at) / Fold change (ACY-1035/veh), C12orf56 (ProbeSet 11735607_a_at) / Fold change (Aza/veh), FGFR1OP (ProbeSet 11751329_s_at) / Fold change (ACY-1035/veh), FGFR1OP (ProbeSet 11751329_s_at) / Fold change (Aza/veh), VPS36 (ProbeSet 11739960_a_at) / Fold change (ACY-1035/veh), VPS36 (ProbeSet 11739960_a_at) / RFU SYPL1 (11715823_x_at) / Fold change /veh SYPL1 (11715823_x_at) / RFU IGFBP7 (11715501_s_at) / Fold change /veh IGFBP7 (11715501_s_at) / RFU REEP3 (11722064_at) / Fold change /veh REEP3 (11722064_at) / RFU IGLL1 (11728026_x_at) / Fold change /veh IGLL1 (11728026_x_at): dose or concentration left out as unconfirmed
Details: MV-4-11 cells, 48 hours

Nc1ncn([C@@H]2O[C@H](CO)[C@@H](O)[C@H]2O)c(=O)n1 [azacitidine]
RFU RCAN1 (11760418_a_at): 18.64 RFU

— article PMC5218480 (PLoS ONE, 2017)
